# Data from publication PMC1262691, “Probing stereoselective inhibition of the acyl binding site of cholesterol esterase with four diastereomers of 2'-N-α-methylbenzylcarbamyl-1, 1'-bi-2-naphthol” (BMC Biochemistry, 2005).
# Structures can show the parent of a compound that is named as a salt.
# B1: pancreatic cholesterol esterase (CEase) (Sus scrofa) (protein)
# chain: KLGSVYTEGGFVEGVNKKLSLLGDSVDIFKGIPFAAAPKALENPQRHPGWQGTLKAKDFKKRCLQATITQDSTYGDEDCLYLNIWVPQGRKEVSRDLPVMIWIYGGAFLMGSGQGANFLSNYLYDGEELATRGNVIVVTFNYRVGPLGFLSTGDANLPGNYGLRDQHMAIAWVKRNIAAFGGDPDNITIFGESAGGASVSLQTLSPYNKGLIKRAISQSGVALSPWAIQKNPLSWAKTIAEKVGCPMDDTARMARCLKITDPRALTLAYKLPLTKQEFPVVHYLGFIPVVDGDFIPDDPVNLYANAADIDYLAGTNDMDGHLFATVDLPAVDKDKKTITEEDFYKLVSGFTIVKGPRGANITFDVYTASWAQDSSQETKKKTVVDLETDILFLMPTETAVAQHRANAKSAQTYTYVFAHPSRMPVYPSWVADHADDLQYVFGKPFATPGYRSQDRTVSKAMIAYWTNFARSGDPNMGGSSVPTHWEPYTLESSKYLEITNKMDSSSMKQDLRTSYLQYWATTYQALPTVADEGAIPVPPTGDSEATPAPPTGDPEATPAPPTGDSEATPAPPPSDAEVAQMPIVIGF
# Assays:
# [1] = molecular target: T1, pancreatic cholesterol esterase (CEase) (Sus scrofa, UniProt A0A286ZKB1); test: time-dependent (pseudo substrate) inhibition kinetics, PNPB hydrolysis at […] nm; format: biochemical
# T1 construct: gene CEL
# T1 sequence (A0A286ZKB1 96-682): B1 chain
# [2] = molecular target: T1, pancreatic cholesterol esterase (CEase); test: protection of the enzyme against carbamate inactivation by […] TFA; format: biochemical
# [3] = substrate: CCCC(=O)Oc1ccc([N+](=O)[O-])cc1; test: purified protein; format: biochemical, Sus scrofa
Molecule,KI (inactivation) [1] [nM],further results
"C[C@@H](NC(=O)Oc1ccc2ccccc2c1-c1c(O)ccc2ccccc12)c1ccccc1 [(1R, αR)-1, 2'-N-(R)-α-methylbenzylcarbamyl-(R)-1, 1'-bi-2-naphthol]",200 ± 10,
"C[C@H](NC(=O)Oc1ccc2ccccc2c1-c1c(O)ccc2ccccc12)c1ccccc1 [(1R, αS)-1, 2'-N-(S)-α-methylbenzylcarbamyl-(R)-1, 1'-bi-2-naphthol]",500 ± 30,
"C[C@@H](NC(=O)Oc1ccc2ccccc2c1-c1c(O)ccc2ccccc12)c1ccccc1 [(1S, αR)-1, 2'-N-(R)-α-methylbenzylcarbamyl-(S)-1, 1'-bi-2-naphthol]",2000 ± 100,
"C[C@H](NC(=O)Oc1ccc2ccccc2c1-c1c(O)ccc2ccccc12)c1ccccc1 [(1S, αS)-1, 2'-N-(S)-α-methylbenzylcarbamyl-(S)-1, 1'-bi-2-naphthol]",6000 ± 400,
"O=C(c1ccccc1)C(F)(F)F [TFA, trifluoroacetophenone]",,protection of the enzyme against carbamate inactivation by 2 μM TFA [2]: the enzyme is protected from inhibition by carbamate by binding of TFA
B1,,Km [3]: 140 ± 10 µM
